Reference: PubChem BioAssay (NCI)
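Dose response: 5 concentrations. Exposure: 48 h. Format: 96-well plates. Endpoint: linear interpolation; highest concentration if not reached. GI50: concentration for 50% inhibition of growth. TGI denotes the concentration required for complete inhibition of growth.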

What was measured:
Test in all cases: NCI anticancer screen, dose series, 48 h
786-0 renal = system: 786-0 renal
A498 renal = system: A498 renal
A549 NSCLC = system: A549 NSCLC
ACHN renal = system: ACHN renal
BT-549 breast = system: BT-549 breast
CAKI-1 renal = system: CAKI-1 renal
CCRF-CEM leukemia = system: CCRF-CEM leukemia
COLO 205 colon = system: COLO 205 colon
DU-145 prostate = system: DU-145 prostate
EKVX NSCLC = system: EKVX NSCLC
HCC-2998 colon = system: HCC-2998 colon
HCT-116 colon = system: HCT-116 colon
HCT-15 colon = system: HCT-15 colon
HL-60(TB) leukemia = system: HL-60(TB) leukemia
HOP-62 NSCLC = system: HOP-62 NSCLC
HOP-92 NSCLC = system: HOP-92 NSCLC
HS 578T breast = system: HS 578T breast
HT29 colon = system: HT29 colon
IGROV1 ovarian = system: IGROV1 ovarian
K-562 leukemia = system: K-562 leukemia
KM12 colon = system: KM12 colon
LOX IMVI melanoma = system: LOX IMVI melanoma
MALME-3M melanoma = system: MALME-3M melanoma
MCF7 breast = system: MCF7 breast
MDA-MB-231 breast = system: MDA-MB-231 breast
MDA-MB-435 = system: MDA-MB-435
MOLT-4 leukemia = system: MOLT-4 leukemia
NCI-H226 lung = system: NCI-H226 lung
NCI-H23 lung = system: NCI-H23 lung
NCI-H460 lung = system: NCI-H460 lung
NCI-H522 lung = system: NCI-H522 lung
NCI/ADR-RES ovarian = system: NCI/ADR-RES ovarian
OVCAR-3 ovarian = system: OVCAR-3 ovarian
OVCAR-4 ovarian = system: OVCAR-4 ovarian
OVCAR-5 ovarian = system: OVCAR-5 ovarian
OVCAR-8 ovarian = system: OVCAR-8 ovarian
PC-3 prostate = system: PC-3 prostate
RPMI-8226 leukemia = system: RPMI-8226 leukemia
SF-268 CNS = system: SF-268 CNS
SF-295 CNS = system: SF-295 CNS
SF-539 CNS = system: SF-539 CNS
SK-MEL-2 melanoma = system: SK-MEL-2 melanoma
SK-MEL-28 melanoma = system: SK-MEL-28 melanoma
SK-MEL-5 melanoma = system: SK-MEL-5 melanoma
SK-OV-3 ovarian = system: SK-OV-3 ovarian
SN12C renal = system: SN12C renal
SNB-19 CNS = system: SNB-19 CNS
SNB-75 CNS = system: SNB-75 CNS
SR leukemia = system: SR leukemia
SW-620 colon = system: SW-620 colon
T-47D breast = system: T-47D breast
TK-10 renal = system: TK-10 renal
U251 CNS = system: U251 CNS
UACC-257 melanoma = system: UACC-257 melanoma
UACC-62 melanoma = system: UACC-62 melanoma
UO-31 renal = system: UO-31 renal
M14 melanoma = system: M14 melanoma
RXF 393 renal = system: RXF 393 renal

## CC(=O)O[C@H](C[C@H](C(C)C)N(C)C(=O)[C@@H](NC(=O)[C@H]1CCCCN1C)C(C)C)c1nc(C(=O)N[C@@H](Cc2ccccc2)C[C@H](C)C(=O)O)c(CCOCc2ccccc2)s1
786-0 renal
  GI50: < 0.001 µM
  TGI: > 10 µM
A498 renal
  GI50: < 0.001 µM
  TGI: 0.00316 µM
A549 NSCLC
  GI50: < 0.001 µM
  TGI: > 10 µM
ACHN renal
  GI50: 0.00105 µM
  TGI: > 10 µM
BT-549 breast
  GI50: < 0.001 µM
  TGI: 0.00816 µM
CAKI-1 renal
  GI50: < 0.001 µM
  TGI: > 10 µM
CCRF-CEM leukemia
  GI50: < 0.001 µM
  TGI: > 10 µM
COLO 205 colon
  GI50: < 0.001 µM
  TGI: < 0.001 µM
DU-145 prostate
  GI50: < 0.001 µM
  TGI: 0.00119 µM
EKVX NSCLC
  GI50: < 0.001 µM
  TGI: > 10 µM
HCC-2998 colon
  GI50: < 0.001 µM
  TGI: 0.616 µM
HCT-116 colon
  GI50: < 0.001 µM
  TGI: 0.176 µM
HCT-15 colon
  GI50: < 0.001 µM
  TGI: > 10 µM
HL-60(TB) leukemia
  GI50: < 0.001 µM
  TGI: < 0.001 µM
HOP-62 NSCLC
  GI50: < 0.001 µM
  TGI: > 10 µM
HOP-92 NSCLC
  GI50: < 0.001 µM
  TGI: > 10 µM
HS 578T breast
  GI50: < 0.001 µM
  TGI: > 10 µM
HT29 colon
  GI50: < 0.001 µM
  TGI: > 10 µM
IGROV1 ovarian
  GI50: 0.00109 µM
  TGI: > 10 µM
K-562 leukemia
  GI50: < 0.001 µM
  TGI: > 10 µM
KM12 colon
  GI50: < 0.001 µM
LOX IMVI melanoma
  GI50: < 0.001 µM
  TGI: > 10 µM
MALME-3M melanoma
  GI50: < 0.001 µM
  TGI: > 10 µM
MCF7 breast
  GI50: < 0.001 µM
  TGI: > 10 µM
MDA-MB-231 breast
  GI50: < 0.001 µM
MDA-MB-435
  GI50: < 0.001 µM
  TGI: < 0.001 µM
MOLT-4 leukemia
  GI50: < 0.001 µM
  TGI: > 10 µM
NCI-H226 lung
  GI50: < 0.001 µM
  TGI: 0.00313 µM
NCI-H23 lung
  GI50: < 0.001 µM
  TGI: > 10 µM
NCI-H460 lung
  GI50: < 0.001 µM
  TGI: > 10 µM
NCI-H522 lung
  GI50: < 0.001 µM
  TGI: < 0.001 µM
NCI/ADR-RES ovarian
  GI50: 0.003 µM
  TGI: 0.0511 µM
OVCAR-3 ovarian
  GI50: < 0.001 µM
OVCAR-4 ovarian
  GI50: 0.00242 µM
  TGI: > 10 µM
OVCAR-5 ovarian
  GI50: < 0.001 µM
  TGI: > 10 µM
OVCAR-8 ovarian
  GI50: < 0.001 µM
  TGI: > 10 µM
PC-3 prostate
  GI50: < 0.001 µM
  TGI: > 10 µM
RPMI-8226 leukemia
  GI50: < 0.001 µM
  TGI: > 10 µM
SF-268 CNS
  GI50: < 0.001 µM
  TGI: > 10 µM
SF-295 CNS
  GI50: < 0.001 µM
  TGI: < 0.0297 µM
SF-539 CNS
  GI50: < 0.001 µM
  TGI: 0.00174 µM
SK-MEL-2 melanoma
  GI50: < 0.001 µM
  TGI: > 5.68 µM
SK-MEL-28 melanoma
  GI50: 0.797 µM
  TGI: > 10 µM
SK-MEL-5 melanoma
  GI50: < 0.001 µM
  TGI: 0.00159 µM
SK-OV-3 ovarian
  GI50: < 0.001 µM
  TGI: > 10 µM
SN12C renal
  GI50: < 0.001 µM
  TGI: > 10 µM
SNB-19 CNS
  GI50: < 0.001 µM
  TGI: > 10 µM
SNB-75 CNS
  GI50: < 0.001 µM
  TGI: 5.67 µM
SR leukemia
  GI50: < 0.001 µM
  TGI: > 10 µM
SW-620 colon
  GI50: < 0.001 µM
  TGI: > 10 µM
T-47D breast
  GI50: < 0.001 µM
  TGI: > 10 µM
TK-10 renal
  GI50: 0.108 µM
  TGI: > 10 µM
U251 CNS
  GI50: < 0.001 µM
UACC-257 melanoma
  GI50: < 0.001 µM
  TGI: > 10 µM
UACC-62 melanoma
  GI50: < 0.001 µM
  TGI: > 10 µM
UO-31 renal
  GI50: 0.00486 µM
  TGI: > 10 µM

## CC(C)S(=O)(=O)c1ccccc1Nc1nc(Nc2cccc(NC(=O)CN)c2)ncc1Cl
786-0 renal
  GI50: 0.235 µM
  TGI: 2.57 µM
A498 renal
  GI50: < 0.0242 µM
  TGI: 0.493 µM
A549 NSCLC
  GI50: 0.147 µM
  TGI: 9.03 µM
ACHN renal
  GI50: 0.124 µM
  TGI: 6.95 µM
BT-549 breast
  GI50: 0.149 µM
  TGI: 1 µM
CAKI-1 renal
  GI50: 0.2 µM
  TGI: 7.25 µM
CCRF-CEM leukemia
  GI50: < 0.0355 µM
  TGI: 4.5 µM
COLO 205 colon
  GI50: 0.0319 µM
  TGI: 0.223 µM
DU-145 prostate
  GI50: 0.406 µM
  TGI: 6.51 µM
EKVX NSCLC
  GI50: 1.5 µM
  TGI: 10.1 µM
HCC-2998 colon
  GI50: 0.399 µM
  TGI: 4.12 µM
HCT-116 colon
  GI50: 0.0403 µM
  TGI: 0.696 µM
HCT-15 colon
  GI50: 0.16 µM
  TGI: 3.72 µM
HL-60(TB) leukemia
  GI50: 0.103 µM
  TGI: 0.55 µM
HOP-62 NSCLC
  GI50: 0.112 µM
  TGI: 6.13 µM
HOP-92 NSCLC
  GI50: 0.102 µM
  TGI: 1.55 µM
HS 578T breast
  GI50: 0.161 µM
  TGI: 1.11 µM
HT29 colon
  GI50: 0.183 µM
  TGI: 2.83 µM
IGROV1 ovarian
  GI50: 0.263 µM
  TGI: 12.6 µM
K-562 leukemia
  GI50: 0.198 µM
  TGI: 2.55 µM
KM12 colon
  GI50: 0.0331 µM
  TGI: 2.45 µM
LOX IMVI melanoma
  GI50: 0.0384 µM
  TGI: 0.258 µM
M14 melanoma
  GI50: 0.189 µM
  TGI: 1.49 µM
MALME-3M melanoma
  GI50: 1.22 µM
  TGI: 3.12 µM
MCF7 breast
  GI50: 0.0177 µM
  TGI: 1.25 µM
MDA-MB-231 breast
  GI50: 0.239 µM
  TGI: 3.97 µM
MDA-MB-435
  GI50: 0.553 µM
  TGI: 2.16 µM
MOLT-4 leukemia
  GI50: 0.231 µM
  TGI: 2.14 µM
NCI-H226 lung
  GI50: 0.113 µM
  TGI: 1.98 µM
NCI-H23 lung
  GI50: 0.208 µM
  TGI: 1.03 µM
NCI-H460 lung
  GI50: 0.0306 µM
  TGI: 1.64 µM
NCI-H522 lung
  GI50: 1.33 µM
  TGI: 4.08 µM
NCI/ADR-RES ovarian
  GI50: 0.482 µM
  TGI: 3.6 µM
OVCAR-3 ovarian
  GI50: 0.158 µM
  TGI: 3.75 µM
OVCAR-4 ovarian
  GI50: 0.336 µM
  TGI: 5.05 µM
OVCAR-5 ovarian
  GI50: 0.183 µM
  TGI: 9.27 µM
OVCAR-8 ovarian
  GI50: 0.286 µM
  TGI: 6.97 µM
PC-3 prostate
  GI50: 0.308 µM
  TGI: 5.9 µM
RPMI-8226 leukemia
  GI50: 0.254 µM
  TGI: 2.41 µM
RXF 393 renal
  GI50: 0.0565 µM
  TGI: 0.302 µM
SF-268 CNS
  GI50: 0.189 µM
  TGI: 1.3 µM
SF-295 CNS
  GI50: < 0.0225 µM
  TGI: 8.59 µM
SF-539 CNS
  GI50: 0.0455 µM
  TGI: 0.334 µM
SK-MEL-2 melanoma
  GI50: 0.347 µM
  TGI: 1.57 µM
SK-MEL-28 melanoma
  GI50: 0.406 µM
  TGI: 2.25 µM
SK-MEL-5 melanoma
  GI50: 0.136 µM
  TGI: 0.894 µM
SK-OV-3 ovarian
  GI50: 1.11 µM
  TGI: 8.57 µM
SN12C renal
  GI50: 0.21 µM
  TGI: 6.66 µM
SNB-19 CNS
  GI50: 0.251 µM
  TGI: 10.1 µM
SNB-75 CNS
  GI50: 0.0346 µM
  TGI: 0.41 µM
SR leukemia
  GI50: 0.0101 µM
  TGI: 0.423 µM
SW-620 colon
  GI50: 0.0394 µM
  TGI: 4.09 µM
T-47D breast
  GI50: 0.586 µM
  TGI: 4.68 µM
TK-10 renal
  GI50: 0.362 µM
  TGI: 7.86 µM
U251 CNS
  GI50: 0.179 µM
  TGI: 2.86 µM
UACC-257 melanoma
  GI50: 0.997 µM
  TGI: 6.73 µM
UACC-62 melanoma
  GI50: 0.164 µM
  TGI: 1.83 µM
UO-31 renal
  GI50: 0.176 µM
  TGI: 4.08 µM
